The values that follow come from article PMC9533862 (Antiviral Research, 2010).

Several values for one entry are separate records, joined by “and”; a condition that tells them apart may be missing. Equal entries are not always repeated. Where two headings read alike, the source gives them in different places.

Data set [1] has as its system vaccinia virus (strain Copenhagen). In words: microbe, parasite or virus in culture. It is filed as cell-based.
In data set [2] the test system is vaccinia virus Western Reserve (WR) strain. In words: microbe, parasite or virus in culture. It is filed as cell-based.
The subject of data set [3] is vaccinia virus (strain Copenhagen). Format: cell-based.
Data set [4] has the same test system. It is filed as cell-based. The note with it: 0.2 μM.
The test system is the same in data set [5]. It is filed as cell-based. The following applies: 0.2 μM. The source holds these as a separate data set.
The subject of the next data set is myxoma virus. Format: cell-based. The note with it: HeLa cells, 2 μM, MOI 0.1.
The subject of data set [6] is vaccinia virus gene transcription (D12, A1, A17). It is filed as cell-based. The following applies: 2 μM.
Data set [7] has as its system vaccinia virus DNA replication. Format: cell-based.
For data set [8], the system named is vaccinia virus protein expression (D12, G8, H3). It is filed as cell-based. The following applies: 2 μM.
Data set [9] concerns Plasmodium vinckei petteri. The note with it: mice; ref Adovelande and Schrevel, 1996; cited from earlier work.
The nature of the next data set: in vitro. The note with it: human, CC50, HeLa cell monolayers; 24 h incubation; WST-1.
For a further data set, the system named is HeLa cells. The following applies: HeLa cell monolayers; 24 h incubation; WST-1.
In the next data set the test system is vaccinia virus. The following applies: previously reported against vaccinia; ref Yang et al., 2005; cited from earlier work.

In the case of `CO[C@@H]1C[C@@H](C[C@H]2CC[C@H](C)[C@H]([C@@H](C)C(=O)O)O2)O[C@]2(O[C@](C)([C@H]3CC[C@@](C)([C@@H]4O[C@@H]([C@H]5O[C@@](O)(CO)[C@H](C)C[C@@H]5C)C[C@@H]4C)O3)C[C@H]2C)[C@@H]1C` [Nigericin], the Selectivity index in data set [1] was 1038 (Cop). The molecule also had an IC50 in data set [1] (Orthopoxvirus vaccinia, HeLa) of roughly 0.0079 µM. In addition, the Selectivity index in [2] is 421 (WR). Besides, the IC50 in data set [2] (Vaccinia virus Western Reserve, HeLa) was roughly 0.0195 µM. Besides, in [3], the “reduction of virus replication, compound added 4 hpi” value is on record as roughly 1600 fold and the “vaccinia replication after removal of compound at 1 hpi” value is “vaccinia replication approached the level of untreated controls”. Also, in [3] (0.2 μM), the “decrease in viral titres” value is listed as roughly 10 fold. Besides, the “decrease in viral titres” value in data set [4] is roughly 10 fold. For the same molecule, the “decrease in viral titres” value in [5] is recorded as roughly 10 fold. Moreover, the “reduction in virus titres” value in the data set on myxoma virus was determined as 676 fold. Besides, in data set [6], the “reduction of A1 (intermediate) transcript expression” value was roughly 94%, the “reduction of A17 (late) transcript expression” value is on record as roughly 98% and the “reduction of D12 (early) transcript expression” value is roughly 82%. For the same molecule, in data set [7] (2 μM), the “abundance of the A1 gene at 8 hpi (viral DNA replication)” value is on record as “no significant increase in the abundance of the A1 gene”. Besides, in data set [8], the “D12 (early) protein expression” value is “partially inhibited”, the “G8 (intermediate) protein expression” value is “very little G8 detected” and the “H3 (late) protein expression” value was “unable to detect H3 protein”. The “dosages at which toxicity was observed” value in [9] is given as “above 10 mg kg^−1”.

For the molecule `C/C=C/[C@H]1O[C@@](O)([C@@H](C)[C@H](O)[C@H](C)[C@H]2OC(=O)/C(OC)=C/C(C)=C/[C@@H](C)[C@@H](O)[C@@H](CC)[C@@H](O)[C@H](C)C/C(C)=C/C=C/[C@@H]2OC)C[C@@H](O[C@H]2C[C@@H](O)[C@H](OC(N)=O)[C@@H](C)O2)[C@@H]1C` [Concanamycin A], in data set [1], the Selectivity index is reported as 7941. Further, in data set [1] (Orthopoxvirus vaccinia, HeLa), the IC50 is roughly 0.0017 µM. Further, the midpoint of cytotoxicity in “in vitro”, the CC50, lay at 13.5 ± 5.7 µM.

Regarding `Nc1ccn(C[C@@H](CO)OCP(=O)(O)O)c(=O)n1` [Cidofovir], the IC50 in data set [1] (Orthopoxvirus vaccinia, HeLa) was roughly 110 µM. In addition, the “reduction in virus titres” value in [3] was “no effect on vaccinia replication”. In “in vitro”, this molecule came in with a cytotoxic concentration (CC50) greater than 1000 µM.

Consider `C/C=C/[C@H]1O[C@@](O)([C@@H](C)[C@H](O)[C@H](C)[C@H]2OC(=O)/C(OC)=C/C(C)=C/[C@@H](C)[C@@H](O)[C@@H](CC)[C@@H](O)[C@H](C)C/C(C)=C/C=C/[C@@H]2OC)C[C@@H](O[C@H]2C[C@@H](O)[C@H](O)[C@@H](C)O2)[C@@H]1C` [Concanamycin C], for which the IC50 in [1] was ~0.0028 µM and 0.0028 µM. In the data set with HeLa cells, this molecule showed a CC50 of 15.6 ± 3.2 µM.

For `C/C=C/[C@H]1O[C@@](O)([C@@H](C)[C@H](O)[C@H](C)[C@H]2OC(=O)/C(OC)=C/C(C)=C/[C@@H](C)[C@@H](O)[C@@H](C)[C@@H](O)[C@H](C)C/C(C)=C/C=C/[C@@H]2OC)C[C@@H](O[C@H]2C[C@@H](O)[C@H](OC(N)=O)[C@@H](C)O2)[C@@H]1C` [Concanamycin B], the IC50 in data set [1] is ~0.011 µM and 0.011 µM. In the data set with HeLa cells, this molecule returned a CC50 of 21.4 ± 0.6 µM.

On to `Nc1ccn([C@@H]2O[C@H](CO)[C@@H](O)[C@@H]2O)c(=O)n1` [araC, cytosine arabinoside], for which the “abundance of the A1 gene at 8 hpi (viral DNA replication)” value in data set [7] (50 μg/mL) is “no significant increase in the abundance of the A1 gene”.

In data set [1], `CC[C@@]1([C@@H]2O[C@@H]([C@H]3O[C@@](O)(CO)[C@H](C)C[C@@H]3C)C[C@@H]2C)CC[C@H]([C@]2(C)CC[C@]3(C[C@H](O)[C@@H](C)[C@@H]([C@@H](C)[C@@H](OC)[C@H](C)C(=O)O)O3)O2)O1` [Monensin] displayed a Selectivity index of 1065. For the same molecule, the 50% inhibitory concentration (IC50) in [1] (Orthopoxvirus vaccinia, HeLa) was roughly 0.0216 µM. Besides, the “reduction in virus titres” value in data set [3] was “approximately 20 fold”. The CC50 in “in vitro” stood at 23 ± 2.9 µM.

For the molecule `O=C(NN1C(=O)[C@@H]2[C@@H]3C=C[C@@H]([C@H]4C[C@@H]34)[C@@H]2C1=O)c1ccc(C(F)(F)F)cc1` [ST-246], the concentration for half-maximal inhibition (IC50) in data set [1] (Orthopoxvirus vaccinia, HeLa) was roughly 0.0094 µM; with vaccinia virus it was 0.01 µM. Further, in data set [3], the “reduction in virus titres” value is “approximately 7.4 fold”. Besides, the CC50 in “in vitro” was greater than 1000 µM.

As usually defined, the IC50 is the concentration at which inhibition is half-maximal. As usually defined, the CC50 is the concentration at which the toxic effect on the cells reaches its halfway point. A lower CC50 goes with harm at low concentration.
